The source of these data is US7691867B2, “Chemical compounds” (AstraZeneca AB, priority 2003, dated 2010).

pIC50: −log10 of the molar value.

One test has as its target T1, Aurora-A kinase (Homo sapiens, UniProt O14965).
T1 sequence (O14965 1-403): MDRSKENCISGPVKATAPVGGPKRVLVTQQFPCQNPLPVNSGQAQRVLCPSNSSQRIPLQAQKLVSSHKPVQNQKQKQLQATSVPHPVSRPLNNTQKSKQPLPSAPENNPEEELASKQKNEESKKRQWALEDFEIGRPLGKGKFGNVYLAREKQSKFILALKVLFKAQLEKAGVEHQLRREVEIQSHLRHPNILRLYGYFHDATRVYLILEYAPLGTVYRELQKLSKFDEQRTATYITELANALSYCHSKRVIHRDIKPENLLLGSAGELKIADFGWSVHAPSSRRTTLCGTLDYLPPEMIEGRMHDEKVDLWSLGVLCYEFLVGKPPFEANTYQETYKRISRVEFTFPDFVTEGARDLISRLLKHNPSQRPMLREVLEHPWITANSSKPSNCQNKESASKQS
The test is described as follows: In vitro Aurora-A kinase inhibition test. The test is classed as biochemical.

The subject of test [1] is human tumour cell line SW620. The test is described as follows: In vitro cell proliferation assay (BrdU incorporation). The test is classed as cell-based. The settings on record: SW-620, SW620 cells, 48 hours with compound, BrdU incorporation over 2 hour labelling period, read-out: 50% inhibition of enzyme activity at a concentration of. An excerpt: (c) In Vitro cell Proliferation Assay
This and other assays can be used to determine the ability of a test compound to inhibit the growth of adherent mammalian cell lines, for example the human tumour cell line SW620 (ATCC CCL-227). This assay determines the ability of at test compound to inhibit the incorporation of the thymidine analogue, 5′-bromo-2′-deoxy-uridine (BrdU) into cellular DNA. SW620 or other adherent cells were typically seeded at 1×10^5 cells per well in L-15 media (GIBCO) plus 5% foetal calf serum, 1% L-glutamine (100 μl /well) in 96 well tissue culture treated 96 well plates (Costar) and allowed to adhere overnight. The following day the cells were dosed with compound (diluted from 10 mM stock in DMSO using L-15 (with 5% FCS, 1% L-glutamine). Untreated control wells and wells containing a compound known to give 100% inhibition of BrdU incorporation were included on each plate. After 48 hours in the presence/absence of test compound the ability of the cells to incorporate BrdU over a 2 hour labelling period was determined using a Boehringer (Roche) Cell Proliferation BrdU EUSA kit (cat. No. 1 647 229) according to manufacturers directions. Briefly, 15 μl of BrdU labelling reagent (diluted 1:100 in media—L-15, 5% FCS, 1% L-glutamine) was added to each well and the plate returned to a humidified (+5% CO2) 37° C. incubator for 2 hours. After 2 hours the labelling reagent was removed by decanting and tapping the plate on a paper towel. FixDenat solution (50 μl per well) was added and the plates incubated at room temperature for 45 mins with shaking. The FixDenat solution was removed by decanting and tapping the inverted plate on a paper towel. The plate was then washed once with phosphate buffered saline (PBS) and 100 μl/well of Anti-BrdU-POD antibody solution (diluted 1:100 in antibody dilution buffer) added. The plate was then incubated at room temperature with shaking for 90 min. […] The optical density of the wells was then determined at 690 nm wavelength using a Titertek Multiscan plate reader. […]

The target in a further test is Aurora-B kinase (Homo sapiens, UniProt Q96GD4). The test is described as follows: In vitro Aurora-B kinase inhibition test. It is filed as biochemical. The following applies: recombinant Aurora-B, peptide substrate, [γ33P]ATP, 60 minutes at room temperature; read-out: 50% inhibition of enzyme activity at a concentration of. As for the experimental part:
(b) In Vitro Aurora-B Kinase Inhibition Test
This assay determines the ability of a test compound to inhibit serine-threonine kinase activity. DNA encoding Aurora-B may be obtained by total gene synthesis or by cloning. This DNA may then be expressed in a suitable expression system to obtain polypeptide with serine-threonine kinase activity.
For the large scale expression of Aurora-B kinase activity, Sf21 insect cells were grown at 28° C. in TC100 medium supplemented with 10% foetal calf serum (Viralex) and 0.2% F68 Pluronic (Sigma) on a Wheaton roller rig at 3 r.p.m. When the cell density reached 1.2×10^6 cells ml^−1 they were infected with plaque-pure Aurora-B recombinant virus at a multiplicity of infection of 1 and harvested 48 hours later. All subsequent purification steps were performed at 4° C. Frozen insect cell pellets containing a total of 2.0×10^8 cells were thawed and diluted with lysis buffer (50 mM HEPES (N-[2-hydroxyethyl]piperazine-N′-[2-ethanesulphonic acid]) pH 7.5 at 4° C., 1 mM Na3VO4, 1 mM PMSF (phenylmethylsulphonyl fluoride), 1 mM dithiothreitol, 1 μg/ml aprotinin, 1 μg/ml pepstatin, 1 μg/ml leupeptin), using 1.0 ml per 2×10^7 cells. Lysis was achieved using a sonication homogeniser, following which the lysate was centrifuged at 41,000 g for 35 minutes. Aspirated supernatant was pumped onto a 5 mm diameter chromatography column containing 1.0 ml CM sepharose Fast Flow (Amersham Pharmacia Biotech) which had been equilibrated in lysis buffer. A baseline level of UV absorbance for the eluent was reached after washing the column with 12 ml of lysis buffer followed by 7 ml of wash buffer (50 mM HEPES pH 7.4 at 4° C., 1 mM dithiothreitol). Bound Aurora-B B protein was eluted from the column using a gradient of elution buffer (50 mM HEPES pH 7.4 at 4° C., 0.6 M NaCl, 1 mM dithiothreitol, running from 0% elution buffer to 100% elution buffer over 15 minutes at a flowrate of 0.5 ml/min). Elution fractions (1.0 ml) corresponding to the peak in UV absorbance was collected. […]

The test system of a further test is SW620 cells. The test is described as follows: In vitro cell cycle analysis assay. The test is classed as cell-based. The settings on record: Homo sapiens, SW-620, 24 hours with compound, DNA content by FACS, read-out: 50% inhibition of enzyme activity at a concentration of. As for the experimental part:
(d) In Vitro Cell Cycle Analysis Assay
This assay determines the ability of a test compound to arrest cells in specific phases of the cell cycle. Many different mammalian cell lines could be used in this assay and SW620 cells are included here as an example. SW620 cells were seeded at 7×10^5 cells per T25 flask (Costar) in 5 ml L-15 (5% FCS, 1% L-glutamine). Flasks were then incubated overnight in a humidified 37° C. incubator with 5% CO2. The following day, 5 μl of L-15 (5% FCS, 1% L-glutamine) carrying the appropriate concentration of test compound solubilised in DMSO was added to the flask. A no compound control treatment was also included (0.5% DMSO). The cells were then incubated for a defined time (24 hours) with compound. After this time the media was aspirated from the cells and they were washed with 5 ml of prewarmed (37° C.) sterile PBSA, then detached from the flask by brief incubation with trypsin and followed by resuspension in 5 ml of 1% Bovine Serum Albumin (BSA, Sigma-Aldrich Co.) in sterile PBSA. The samples were then centrifuged at 2200 rpm for 10 min. The supernatant was aspirated to leave 200 μl of the PBS/BSA solution. The pellet was resuspended in this 200 μl of solution by pipetting 10 times to create a single cell suspension. One ml of ice-cold 80% ethanol was slowly added to each cell suspension and the samples stored at −20° C. overnight or until required for staining. […]
Each sample was then syringed 10 times using 21-guage needle. The samples were then transferred to LPS tubes and DNA content per cell analysed by Fluorescence activated cell sorting (FACS) using a FACScan flow cytometer (Becton Dickinson). Typically 30,000 events were counted and recorded using CellQuest v1.1 software (Verity Software). Cell cycle distribution of the population was calculated using Modfit software (Verity Software) and expressed as percentage of cells with 2N (G0/G1), 2N4N (S phase) and with 4N (G2/M) DNA content.

Chain of Aurora-B kinase (Q96GD4 whole entry): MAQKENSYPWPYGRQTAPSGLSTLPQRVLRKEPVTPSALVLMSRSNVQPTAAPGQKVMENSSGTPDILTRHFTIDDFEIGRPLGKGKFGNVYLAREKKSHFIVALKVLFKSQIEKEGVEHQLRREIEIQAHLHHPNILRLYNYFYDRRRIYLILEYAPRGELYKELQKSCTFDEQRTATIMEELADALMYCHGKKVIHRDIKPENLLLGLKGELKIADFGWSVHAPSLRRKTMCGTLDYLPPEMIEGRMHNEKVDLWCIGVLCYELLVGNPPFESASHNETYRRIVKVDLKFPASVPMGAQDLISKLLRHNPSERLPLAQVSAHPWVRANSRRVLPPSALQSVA

In the case of `COc1cc2c(Nc3cnn(CC(=O)Nc4cccc(F)c4)c3)ncnc2cc1OCCCN1CCC[C@@H]1CO` [Compound 27, N-(3-fluorophenyl)-2-{4-[(7-{3-[(2R)-2-(hydroxymethyl)pyrrolidin-1-yl]propoxy}-6-methoxyquinazolin-4-yl)amino]-1H-pyrazol-1-yl}acetamide], the pIC50 at Aurora-A kinase was 7.47; in test [1], 8.00; on Aurora-B kinase it was 8.30; in the test with SW620 cells it was 8.15.

On to `COc1cc2c(Nc3cnn(CC(=O)Nc4cccc(F)c4F)c3)ncnc2cc1OCCCN(CCO)CC(C)C` [Compound 60, N-(2,3-difluorophenyl)-2-{4-[(7-{3-[(2-hydroxyethyl)(isobutyl)amino]propoxy}-6-methoxyquinazolin-4-yl)amino]-1H-pyrazol-1-yl}acetamide], for which the pIC50 on Aurora-A kinase is 8.00; in test [1], 9.00; at Aurora-B kinase it was 8.10; in the test on SW620 cells, 8.52.

With `CCN(CCO)CCCOc1ccc2c(Nc3cnn(CC(=O)Nc4cccc(F)c4)c3)ncnc2c1` [Compound 187, 2-{4-[(7-{3-[ethyl(2-hydroxyethyl)amino]propoxy}quinazolin-4-yl)amino]-1H-pyrazol-1-yl}-N-(3-fluorophenyl)acetamide], the pIC50 on Aurora-A kinase was 6.30; in test [1] it was 9.00; on Aurora-B kinase it was 8.05; in the test with SW620 cells, 7.68.
